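96-well plates; 48 h exposure; 5 concentrations. Endpoints by linear interpolation between flanking doses. Not reached: highest tested concentration assigned. TGI denotes the concentration required for complete inhibition of growth.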
Assays:
Test in all cases: inhibition of tumour cell growth, NCI panel, 48 h
BT-549 breast = test system: BT-549 breast
NCI-H226 lung = test system: NCI-H226 lung
MDA-MB-435 = test system: MDA-MB-435
A549 NSCLC = test system: A549 NSCLC
OVCAR-3 ovarian = test system: OVCAR-3 ovarian
HCT-15 colon = test system: HCT-15 colon
SR leukemia = test system: SR leukemia
MDA-N = test system: MDA-N
MALME-3M melanoma = test system: MALME-3M melanoma
PC-3 prostate = test system: PC-3 prostate
SNB-19 CNS = test system: SNB-19 CNS
UACC-257 melanoma = test system: UACC-257 melanoma
KM12 colon = test system: KM12 colon
SNB-75 CNS = test system: SNB-75 CNS
A498 renal = test system: A498 renal
OVCAR-4 ovarian = test system: OVCAR-4 ovarian
ACHN renal = test system: ACHN renal
UO-31 renal = test system: UO-31 renal
CAKI-1 renal = test system: CAKI-1 renal
RPMI-8226 leukemia = test system: RPMI-8226 leukemia
CCRF-CEM leukemia = test system: CCRF-CEM leukemia
NCI/ADR-RES ovarian = test system: NCI/ADR-RES ovarian
NCI-H522 lung = test system: NCI-H522 lung
SK-MEL-28 melanoma = test system: SK-MEL-28 melanoma
SK-MEL-2 melanoma = test system: SK-MEL-2 melanoma
SK-OV-3 ovarian = test system: SK-OV-3 ovarian
LOX IMVI melanoma = test system: LOX IMVI melanoma
SF-268 CNS = test system: SF-268 CNS
UACC-62 melanoma = test system: UACC-62 melanoma
IGROV1 ovarian = test system: IGROV1 ovarian
M14 melanoma = test system: M14 melanoma
OVCAR-8 ovarian = test system: OVCAR-8 ovarian
786-0 renal = test system: 786-0 renal
NCI-H23 lung = test system: NCI-H23 lung
NCI-H460 lung = test system: NCI-H460 lung
HOP-92 NSCLC = test system: HOP-92 NSCLC
MCF7 breast = test system: MCF7 breast
MOLT-4 leukemia = test system: MOLT-4 leukemia
SW-620 colon = test system: SW-620 colon
TK-10 renal = test system: TK-10 renal
HS 578T breast = test system: HS 578T breast
SK-MEL-5 melanoma = test system: SK-MEL-5 melanoma
T-47D breast = test system: T-47D breast
HOP-62 NSCLC = test system: HOP-62 NSCLC
EKVX NSCLC = test system: EKVX NSCLC
U251 CNS = test system: U251 CNS
SN12C renal = test system: SN12C renal
DU-145 prostate = test system: DU-145 prostate
HL-60(TB) leukemia = test system: HL-60(TB) leukemia
HT29 colon = test system: HT29 colon
HCT-116 colon = test system: HCT-116 colon
SF-295 CNS = test system: SF-295 CNS
K-562 leukemia = test system: K-562 leukemia
MDA-MB-231 breast = test system: MDA-MB-231 breast
SF-539 CNS = test system: SF-539 CNS
COLO 205 colon = test system: COLO 205 colon
HCC-2998 colon = test system: HCC-2998 colon
OVCAR-5 ovarian = test system: OVCAR-5 ovarian
RXF 393 renal = test system: RXF 393 renal

## COc1ccc(OC)c(C2CCCc3c2cnc2nc(N)nc(N)c32)c1 (configuration not stated)
BT-549 breast
  TGI: > 100 µM
NCI-H226 lung
  TGI: > 100 µM
MDA-MB-435
  TGI: > 100 µM
A549 NSCLC
  TGI: > 100 µM
OVCAR-3 ovarian
  TGI: > 100 µM
HCT-15 colon
  TGI: > 100 µM
SR leukemia
  TGI: > 100 µM
MDA-N
  TGI: > 100 µM
MALME-3M melanoma
  TGI: > 100 µM
PC-3 prostate
  TGI: > 100 µM
SNB-19 CNS
  TGI: > 100 µM
UACC-257 melanoma
  TGI: > 100 µM
KM12 colon
  TGI: > 100 µM
SNB-75 CNS
  TGI: 41 µM
A498 renal
  TGI: > 100 µM
OVCAR-4 ovarian
  TGI: > 100 µM
ACHN renal
  TGI: > 100 µM
UO-31 renal
  TGI: > 100 µM
CAKI-1 renal
  TGI: > 100 µM
RPMI-8226 leukemia
  TGI: > 100 µM
CCRF-CEM leukemia
  TGI: > 100 µM
NCI/ADR-RES ovarian
  TGI: > 100 µM
NCI-H522 lung
  TGI: > 100 µM
SK-MEL-28 melanoma
  TGI: > 100 µM
SK-MEL-2 melanoma
  TGI: > 100 µM
SK-OV-3 ovarian
  TGI: > 100 µM
LOX IMVI melanoma
  TGI: > 100 µM
SF-268 CNS
  TGI: > 100 µM
UACC-62 melanoma
  TGI: > 100 µM
IGROV1 ovarian
  TGI: > 100 µM
M14 melanoma
  TGI: > 100 µM
OVCAR-8 ovarian
  TGI: > 100 µM
786-0 renal
  TGI: > 100 µM
NCI-H23 lung
  TGI: > 100 µM
NCI-H460 lung
  TGI: > 100 µM
HOP-92 NSCLC
  TGI: > 100 µM
MCF7 breast
  TGI: 0.017 µM
MOLT-4 leukemia
  TGI: > 100 µM
SW-620 colon
  TGI: > 100 µM
TK-10 renal
  TGI: > 100 µM
HS 578T breast
  TGI: > 100 µM
SK-MEL-5 melanoma
  TGI: > 100 µM
T-47D breast
  TGI: > 100 µM
HOP-62 NSCLC
  TGI: > 100 µM
EKVX NSCLC
  TGI: > 100 µM
U251 CNS
  TGI: > 100 µM
SN12C renal
  TGI: > 100 µM
DU-145 prostate
  TGI: > 100 µM
HL-60(TB) leukemia
  TGI: > 100 µM
HT29 colon
  TGI: > 100 µM
HCT-116 colon
  TGI: > 100 µM
SF-295 CNS
  TGI: > 100 µM
K-562 leukemia
  TGI: > 100 µM
MDA-MB-231 breast
  TGI: > 100 µM
SF-539 CNS
  TGI: > 100 µM
COLO 205 colon
  TGI: > 100 µM

## O=c1[nH]c(=O)n(C2CC(O)C(COP(=O)(O)OC3CC(n4cc(F)c(=O)[nH]c4=O)OC3COP(=O)(O)OC3CC(n4cc(F)c(=O)[nH]c4=O)OC3COP(=O)(O)OC3CC(n4cc(F)c(=O)[nH]c4=O)OC3COP(=O)(O)OC3CC(n4cc(F)c(=O)[nH]c4=O)OC3COP(=O)(O)OC3CC(n4cc(F)c(=O)[nH]c4=O)OC3COP(=O)(O)OC3CC(n4cc(F)c(=O)[nH]c4=O)OC3COP(=O)(O)OC3CC(n4cc(F)c(=O)[nH]c4=O)OC3COP(=O)(O)OC3CC(n4cc(F)c(=O)[nH]c4=O)OC3COP(=O)(O)OC3CC(n4cc(F)c(=O)[nH]c4=O)OC3CO)O2)cc1F (configuration not stated)
HCC-2998 colon
  TGI: > 50 µM
BT-549 breast
  TGI: > 50 µM
NCI-H226 lung
  TGI: > 50 µM
MDA-MB-435
  TGI: > 50 µM
A549 NSCLC
  TGI: > 50 µM
HCT-15 colon
  TGI: > 50 µM
SR leukemia
  TGI: > 50 µM
MDA-N
  TGI: > 50 µM
PC-3 prostate
  TGI: > 50 µM
SNB-19 CNS
  TGI: > 50 µM
UACC-257 melanoma
  TGI: > 50 µM
KM12 colon
  TGI: > 50 µM
SNB-75 CNS
  TGI: > 50 µM
A498 renal
  TGI: 1.12 µM
OVCAR-5 ovarian
  TGI: > 50 µM
OVCAR-4 ovarian
  TGI: > 50 µM
ACHN renal
  TGI: > 50 µM
UO-31 renal
  TGI: > 50 µM
CAKI-1 renal
  TGI: > 50 µM
RPMI-8226 leukemia
  TGI: > 50 µM
NCI/ADR-RES ovarian
  TGI: > 50 µM
SK-MEL-28 melanoma
  TGI: > 50 µM
SK-MEL-2 melanoma
  TGI: > 50 µM
SK-OV-3 ovarian
  TGI: > 50 µM
LOX IMVI melanoma
  TGI: > 50 µM
SF-268 CNS
  TGI: > 50 µM
IGROV1 ovarian
  TGI: > 50 µM
M14 melanoma
  TGI: > 50 µM
OVCAR-8 ovarian
  TGI: > 50 µM
786-0 renal
  TGI: > 50 µM
NCI-H23 lung
  TGI: > 50 µM
HOP-92 NSCLC
  TGI: > 50 µM
MCF7 breast
  TGI: > 50 µM
MOLT-4 leukemia
  TGI: > 50 µM
SW-620 colon
  TGI: > 50 µM
TK-10 renal
  TGI: > 50 µM
HS 578T breast
  TGI: > 50 µM
SK-MEL-5 melanoma
  TGI: > 50 µM
T-47D breast
  TGI: > 50 µM
HOP-62 NSCLC
  TGI: > 50 µM
EKVX NSCLC
  TGI: > 50 µM
U251 CNS
  TGI: > 50 µM
SN12C renal
  TGI: > 50 µM
DU-145 prostate
  TGI: > 50 µM
HL-60(TB) leukemia
  TGI: > 50 µM
HT29 colon
  TGI: > 50 µM
RXF 393 renal
  TGI: > 50 µM
HCT-116 colon
  TGI: > 50 µM
SF-295 CNS
  TGI: > 10 µM
K-562 leukemia
  TGI: > 50 µM
MDA-MB-231 breast
  TGI: > 50 µM
SF-539 CNS
  TGI: < 0.005 µM
COLO 205 colon
  TGI: > 50 µM

## CC(=O)Oc1ccc2ccc(=O)oc2c1OC(C)=O
HCC-2998 colon
  TGI: > 100 µM
BT-549 breast
  TGI: > 100 µM
MDA-MB-435
  TGI: > 100 µM
A549 NSCLC
  TGI: > 100 µM
OVCAR-3 ovarian
  TGI: > 100 µM
HCT-15 colon
  TGI: > 100 µM
SR leukemia
  TGI: > 100 µM
MDA-N
  TGI: > 100 µM
MALME-3M melanoma
  TGI: > 100 µM
PC-3 prostate
  TGI: > 100 µM
SNB-19 CNS
  TGI: > 100 µM
UACC-257 melanoma
  TGI: > 100 µM
KM12 colon
  TGI: > 100 µM
SNB-75 CNS
  TGI: > 100 µM
A498 renal
  TGI: > 100 µM
OVCAR-5 ovarian
  TGI: > 100 µM
OVCAR-4 ovarian
  TGI: > 100 µM
ACHN renal
  TGI: > 100 µM
UO-31 renal
  TGI: > 100 µM
CAKI-1 renal
  TGI: > 100 µM
RPMI-8226 leukemia
  TGI: > 100 µM
CCRF-CEM leukemia
  TGI: 46.1 µM
NCI/ADR-RES ovarian
  TGI: > 100 µM
NCI-H522 lung
  TGI: > 100 µM
SK-MEL-28 melanoma
  TGI: > 100 µM
SK-MEL-2 melanoma
  TGI: > 100 µM
SK-OV-3 ovarian
  TGI: > 100 µM
LOX IMVI melanoma
  TGI: > 100 µM
SF-268 CNS
  TGI: > 100 µM
UACC-62 melanoma
  TGI: > 100 µM
IGROV1 ovarian
  TGI: > 100 µM
M14 melanoma
  TGI: > 100 µM
OVCAR-8 ovarian
  TGI: > 100 µM
786-0 renal
  TGI: > 100 µM
NCI-H23 lung
  TGI: > 100 µM
NCI-H460 lung
  TGI: > 100 µM
HOP-92 NSCLC
  TGI: > 100 µM
MCF7 breast
  TGI: > 100 µM
MOLT-4 leukemia
  TGI: > 100 µM
SW-620 colon
  TGI: > 100 µM
TK-10 renal
  TGI: > 100 µM
HS 578T breast
  TGI: > 100 µM
SK-MEL-5 melanoma
  TGI: 94.2 µM
T-47D breast
  TGI: > 100 µM
HOP-62 NSCLC
  TGI: > 100 µM
EKVX NSCLC
  TGI: > 100 µM
U251 CNS
  TGI: > 100 µM
SN12C renal
  TGI: > 100 µM
DU-145 prostate
  TGI: > 100 µM
HL-60(TB) leukemia
  TGI: 38.1 µM
HT29 colon
  TGI: > 100 µM
RXF 393 renal
  TGI: 71.4 µM
HCT-116 colon
  TGI: > 100 µM
SF-295 CNS
  TGI: > 100 µM
K-562 leukemia
  TGI: > 100 µM
MDA-MB-231 breast
  TGI: > 100 µM
SF-539 CNS
  TGI: > 100 µM
COLO 205 colon
  TGI: 63.1 µM
